Test results reported in PubChem BioAssay AID330 (DTP/NCI, 2004).
“And” between values parts separate entries of the source, which are not always exact repeats. Equal entries are not always repeated. Inconclusive results and toxic doses are left out.

Tested on: P388 leukemia ip, CD2F1 mice, survival T/C
Assay: NCI In Vivo Anticancer Drug Screen. Data for tumor model P388 Leukemia (intraperitoneal) in CD2F1 (CDF1) mice
Details: endpoint: median survival time, higher = longer survival
Procedure, shortened: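 Mice carrying the transplanted tumor received test compound or vehicle. Survival was recorded in each group, and the value is the treated-group measurement divided by that of the vehicle-treated control group.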

[1] = dose: 50.0 mg/kg/injection, schedule: Q01DX005 (ip), vehicle: Klucel (hydroxypropylcellulose) (HPC)
[2] = dose: 100.0 mg/kg/injection, schedule: Q01DX005 (ip), vehicle: Klucel (hydroxypropylcellulose) (HPC)
[3] = dose: 200.0 mg/kg/injection, schedule: Q01DX005 (ip), vehicle: Klucel (hydroxypropylcellulose) (HPC)

O=C(O)CCC(=O)OC(C1CO1)C(OC(=O)CCC(=O)O)C1CO1 (configuration not stated)
T/C (dose: 2.5 mg/kg/injection, schedule: Q01DX009 (ip), vehicle: saline): 90 % of control
T/C (dose: 2.5 mg/kg/injection, schedule: Q01DX009 (ip), vehicle: sodium bicarbonate): 103 % of control
T/C (dose: 5.0 mg/kg/injection, schedule: Q01DX009 (ip), vehicle: saline): 116 % of control
T/C (dose: 5.0 mg/kg/injection, schedule: Q01DX009 (ip), vehicle: sodium bicarbonate): 101 % of control
T/C (dose: 10.0 mg/kg/injection, schedule: Q01DX009 (ip), vehicle: sodium bicarbonate): 120 % of control
T/C (dose: 20.0 mg/kg/injection, schedule: Q01DX009 (ip), vehicle: saline): 153 % of control
T/C (dose: 20.0 mg/kg/injection, schedule: Q01DX009 (ip), vehicle: sodium bicarbonate): 122 % of control
T/C (dose: 40.0 mg/kg/injection, schedule: Q01DX009 (ip), vehicle: saline): 167 % of control
T/C (dose: 80.0 mg/kg/injection, schedule: Q01DX009 (ip), vehicle: saline): 206 % of control
T/C (dose: 80.0 mg/kg/injection, schedule: Q01DX009 (ip), vehicle: sodium bicarbonate): 169 % of control
T/C (dose: 160.0 mg/kg/injection, schedule: Q01DX009 (ip), vehicle: sodium bicarbonate): 198 % of control
T/C (dose: 320.0 mg/kg/injection, schedule: Q01DX009 (ip), vehicle: saline): 87 % of control
T/C (dose: 320.0 mg/kg/injection, schedule: Q01DX009 (ip), vehicle: sodium bicarbonate): 93 % of control

C=CC(=O)NC(CSCc1ccccc1)C(=O)O (configuration not stated)
T/C [1]: 98 % of control
T/C [2]: 109 % of control
T/C [3]: 98 % of control

CCc1nc(N)nc(N)c1-c1ccc(N(C)Cc2ccccc2)c(N)c1
T/C [1]: 96 % of control
T/C [2]: 93 % of control
T/C [3]: 103 % of control

O=C(O)CC(CC(=O)c1ccccc1)c1ccccc1 (configuration not stated)
T/C (dose: 12.5 mg/kg/injection, schedule: Q01DX009 (ip), vehicle: Klucel (hydroxypropylcellulose) (HPC)): 104 % of control
T/C (dose: 25.0 mg/kg/injection, schedule: Q01DX009 (ip), vehicle: Klucel (hydroxypropylcellulose) (HPC)): 101 % of control
T/C (dose: 50.0 mg/kg/injection, schedule: Q01DX009 (ip), vehicle: Klucel (hydroxypropylcellulose) (HPC)): 103 % of control and 108 % of control
T/C (dose: 100.0 mg/kg/injection, schedule: Q01DX009 (ip), vehicle: Klucel (hydroxypropylcellulose) (HPC)): 101 % of control and 102 % of control and 107 % of control
T/C (dose: 200.0 mg/kg/injection, schedule: Q01DX009 (ip), vehicle: Klucel (hydroxypropylcellulose) (HPC)): 104 % of control and 94 % of control
T/C (dose: 400.0 mg/kg/injection, schedule: Q01DX009 (ip), vehicle: Klucel (hydroxypropylcellulose) (HPC)): 104 % of control and 93 % of control

c1ccc(Sc2c(-c3ccccc3)c(-c3ccccc3)c3n2CCC3)cc1
T/C (dose: 60.0 mg/kg/injection, schedule: Q01DX005 (ip), vehicle: Klucel (hydroxypropylcellulose) (HPC)): 86 % of control
T/C (dose: 120.0 mg/kg/injection, schedule: Q01DX005 (ip), vehicle: Klucel (hydroxypropylcellulose) (HPC)): 86 % of control

S=C(S)NN1CCOCC1
T/C (dose: 100.0 mg/kg/injection, schedule: Q01DX009 (ip), vehicle: saline): 88 % of control
T/C (dose: 200.0 mg/kg/injection, schedule: Q01DX009 (ip), vehicle: saline): 110 % of control
T/C (dose: 400.0 mg/kg/injection, schedule: Q01DX009 (ip), vehicle: saline): 106 % of control

Nc1cc(Cl)c2[nH]c(-c3ccccc3)nc2n1
T/C (dose: 50.0 mg/kg/injection, schedule: Q01DX001 (ip), vehicle: saline with Tween-80): 96 % of control
T/C (dose: 100.0 mg/kg/injection, schedule: Q01DX001 (ip), vehicle: saline with Tween-80): 94 % of control

O=c1[nH]cc(COCC(F)(F)F)c(=O)[nH]1
T/C (dose: 50.0 mg/kg/injection, schedule: Q04DX003 (ip), vehicle: saline with Tween-80): 99 % of control
T/C (dose: 100.0 mg/kg/injection, schedule: Q04DX003 (ip), vehicle: saline with Tween-80): 111 % of control

C=C1C(=O)O[C@@H]2/C=C(/C)C3=CC(=O)[C@@](C)(C[C@@H](OC(=O)C(C)CC)C12)O3 (some centres not stated)
T/C (dose: 10.0 mg/kg/injection, schedule: Q01DX005 (ip), vehicle: Klucel (hydroxypropylcellulose) (HPC)): 100 % of control
T/C (dose: 20.0 mg/kg/injection, schedule: Q01DX005 (ip), vehicle: Klucel (hydroxypropylcellulose) (HPC)): 102 % of control
T/C (dose: 40.0 mg/kg/injection, schedule: Q01DX005 (ip), vehicle: Klucel (hydroxypropylcellulose) (HPC)): 114 % of control
T/C (dose: 80.0 mg/kg/injection, schedule: Q01DX005 (ip), vehicle: Klucel (hydroxypropylcellulose) (HPC)): 108 % of control

O=CNc1cc(NC=O)ncn1
T/C (dose: 15.0 mg/kg/injection, schedule: Q01DX009 (ip), vehicle: saline with Tween-80): 99 % of control
T/C (dose: 30.0 mg/kg/injection, schedule: Q01DX009 (ip), vehicle: saline with Tween-80): 97 % of control
T/C (dose: 60.0 mg/kg/injection, schedule: Q01DX009 (ip), vehicle: saline with Tween-80): 103 % of control

O=C1CS(=O)(=O)CN1c1ccc(Cl)c(Cl)c1
T/C (dose: 50.0 mg/kg/injection, schedule: Q01DX005 (ip), vehicle: acetone): 112 % of control
T/C (dose: 100.0 mg/kg/injection, schedule: Q01DX005 (ip), vehicle: acetone): 109 % of control
T/C (dose: 200.0 mg/kg/injection, schedule: Q01DX005 (ip), vehicle: acetone): 109 % of control

O=C1C=CC(=O)C1=Cc1ccc([N+](=O)[O-])o1
T/C (dose: 0.78 mg/kg/injection, schedule: Q04DX002 (ip), vehicle: saline with Tween-80): 106 % of control
T/C (dose: 1.56 mg/kg/injection, schedule: Q04DX002 (ip), vehicle: saline with Tween-80): 97 % of control
T/C (dose: 3.12 mg/kg/injection, schedule: Q04DX002 (ip), vehicle: saline with Tween-80): 97 % of control
